From patent US10421761B2, “Compounds for kinase modulation, and indications therefor” (Plexxikon Inc., priority 2013, dated 2019)
Like-named read-outs stand apart in the source and are kept apart here.

Assays:
[1] = system: IPC-298 (NRAS Q61L) cell line; experiment: IPC-298 P-ERK cell activation assay (AlphaScreen); format: cell-based, human; settings: Homo sapiens, P-ERK cell activation, IPC-298, read-out: Cell activity (EC50 μM) IPC-298_P-ERK
Protocol: (§1) B9 is a squamous cell carcinoma cell line expressing activated HRAS that was isolated from a DMBA/TPA-induced mouse model of skin carcinogenesis (Stoler, et al. The Journal of Cell Biology, 1993, 122(5), 1103-17). IPC-298 is a human melanoma cell line that expresses activated NRAS (Aubert, et al. International Journal of Cancer, 1993, 54(5), 784-92). To determine whether compounds induce phosphorylated ERK and MEK, cells are plated in a 96-well dish and treated with an 8-point titration of compound for one hour at 37° C. The media is then removed and the cells are incubated with lysis buffer containing protease and phosphatase inhibitors. Phosphorylated ERK and MEK in the resulting lysates is detected using AlphaScreen™ technology. To detect phosphorylated ERK, cell lysates are incubated with streptavidin-coated donor beads, anti-mouse IgG acceptor beads, a biotinylated anti-ERK1/2 rabbit antibody, and a mouse antibody that recognizes ERK1/2 only when it is phosphorylated on Thr202 and Tyr204. The biotinylated ERK1/2 antibody will bind to both the streptavidin-coated donor beads and to ERK1/2 (regardless of its phosphorylation state), and the phospho-ERK1/2 antibody will bind to the acceptor beads and to ERK1/2 that is phosphorylated at Thr202/Tyr204. Excitation of the beads with laser light at 680 nm produces singlet oxygen, which is rapidly quenched unless the beads are in close proximity. When ERK is phosphorylated, both antibodies can bind the same protein, bringing the donor and acceptor beads into close proximity, producing a signal that can be measured at 580 nm. MEK phosphorylation is detected using a similar approach, only with antibodies directed against total MEK1/2 and MEK1/2 that is phosphorylated at Ser217 and Ser221.
(§2) Phospho-ERK AlphaScreen® assay. To determine the effects of compound treatment upon phosphorylation of ERK1/2, cells were plated in a 96-well dish and treated with an 8-point titration of compound for one hour at 37° C. before lysis. To detect pERK, cell lysates were incubated with streptavidin-coated AlphaScreen® donor beads, anti-mouse IgG AlphaScreen® acceptor beads, a biotinylated anti-ERK1/2 rabbit antibody, and a mouse antibody that recognizes ERK1/2 only when it is phosphorylated on Thr202 and Tyr204. The biotinylated ERK1/2 antibody binds to both the streptavidin-coated AlphaScreen® donor beads and to ERK1/2 (regardless of its phosphorylation state), and the phospho-ERK1/2 antibody binds to the acceptor beads and to ERK1/2 that is phosphorylated at Thr202/Tyr204. An increase in ERK1/2 phosphorylation at Thr202/Tyr204 brings the donor and acceptor AlphaScreen® beads into close proximity, generating a signal that can be quantified on an EnVision reader (Perkin Elmer).

BRAF V600E = target: T1, BRAF V600E (Homo sapiens, UniProt P15056, V600E); experiment: BRAF V600E biochemical kinase activity assay (AlphaScreen, biotin-MEK1 substrate); settings: BRAF V600E biochemical inhibitory activity
T1 construct: purchased Upstate Biotechnology
Protocol: Compounds to be tested are diluted in dimethyl sulfoxide to a concentration of 0.1 mM. These are serially diluted 15 μL into 30 μL of dimethyl sulfoxide seven times in 96 well plates for a total of 8 dilution points, and for each dilution point 1 μL is added to a well of an assay plate. […] The reaction is started with addition of 10 μL of 200 μM ATP (i.e. final 100 μM ATP). After incubation of the kinase reaction for 45 minutes at room temperature, 5 μL/well of Stop Solution is added (25 mM Hepes pH 7.5, 100 mM EDTA, 0.01% BSA with donor beads (Streptavidin coated beads, Perkin Elmer), acceptor beads (Protein A coated, Perkin Elmer), and anti-phosphor MEK1/2 antibody (CellSignal), each at final concentration 10 μg/mL). The plates are incubated for 3 hours at room temperature and read on Envision reader (Perkin Elmer). Phosphorylation of Mek1 results in binding of the anti-phosphor-MEK1/2antibody and association of the donor and acceptor beads such that signal correlates with kinase activity. The signal versus compound concentration is used to determine the IC50.
The in vitro RAF kinase activities were determined by measuring phosphorylation of a biotinylated substrate peptide as described previously (Tsai, J. et al. Proc Natl Acad Sci USA 105, 3041-3046 (2008)). Compounds of formula (I), e.g., compound A, was also tested against a panel of 287 kinases at concentrations of 1 μM in duplicate. Kinases inhibited by over 50% were followed up by IC50 determination. The 287 kinases represent all major branches of the kinome phylogenetic tree. The inhibition screen of 287 kinases was carried out under contract as complementary panels at Invitrogen (Life Technologies, Wis., USA) SelectScreen™ profiling service, DiscoverX (CA, USA) KINOMEScan™ service, and Reaction Biology Corporation (PA, USA) Kinase HotSpot℠ service.

B9 (HRAS Q61L) cell line = experiment: B9 P-ERK cell activation assay (AlphaScreen); format: cell-based, mouse; settings: Mus musculus, P-ERK cell activation, B9, read-out: Cell activity (EC50 μM) B9_pERK
Protocol: as §1, §2

[2] = system: A375 (BRAF V600E) cell line; experiment: A375 P-ERK inhibition assay (AlphaScreen); format: cell-based, human; settings: Homo sapiens, A-375; A375_P-ERK
Protocol: as §2

T1 sequence (P15056 whole entry V600E): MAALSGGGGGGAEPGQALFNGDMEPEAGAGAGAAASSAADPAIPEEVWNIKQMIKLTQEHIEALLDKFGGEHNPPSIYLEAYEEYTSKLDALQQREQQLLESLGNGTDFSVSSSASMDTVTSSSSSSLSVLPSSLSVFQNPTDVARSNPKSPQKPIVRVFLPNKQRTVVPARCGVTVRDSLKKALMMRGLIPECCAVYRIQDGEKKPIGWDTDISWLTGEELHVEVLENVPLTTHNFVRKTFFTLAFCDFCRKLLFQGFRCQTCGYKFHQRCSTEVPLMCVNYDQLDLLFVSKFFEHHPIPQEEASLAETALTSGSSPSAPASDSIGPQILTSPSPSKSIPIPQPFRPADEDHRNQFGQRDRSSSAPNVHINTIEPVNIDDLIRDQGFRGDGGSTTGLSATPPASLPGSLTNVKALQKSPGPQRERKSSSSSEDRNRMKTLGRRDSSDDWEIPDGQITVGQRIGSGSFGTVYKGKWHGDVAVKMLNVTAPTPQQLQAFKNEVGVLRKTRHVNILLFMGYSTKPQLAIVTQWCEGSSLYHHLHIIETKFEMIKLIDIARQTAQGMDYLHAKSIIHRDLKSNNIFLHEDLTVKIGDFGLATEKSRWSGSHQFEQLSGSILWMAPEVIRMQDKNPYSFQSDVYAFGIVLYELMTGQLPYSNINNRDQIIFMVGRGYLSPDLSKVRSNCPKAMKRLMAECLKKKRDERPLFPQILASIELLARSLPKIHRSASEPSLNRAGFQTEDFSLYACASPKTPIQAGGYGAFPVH

Structure (SMILES)	EC50 ([1]; numeric bounds) [µM]	IC50 (BRAF V600E) [µM]	EC50 (B9 (HRAS Q61L) cell line; numeric bounds) [µM]	IC50 [2] [µM]	EC50 ([1]; class symbols) [µM]	EC50 (B9 (HRAS Q61L) cell line; class symbols) [µM]
O=C(c1cccc(NS(=O)(=O)N2CCCC2)c1F)c1c[nH]c2ncnc(NCC(O)CO)c12 (stereo not shown) [P-2096, N-[3-[4-(2,3-dihydroxypropylamino)-7H-pyrrolo[2,3-d]pyrimidine-5-carbonyl]-2-fluoro-phenyl]pyrrolidine-1-sulfonamide]	> 10	0.0001 to 1	> 10	> 10		
Cc1cc2c(-c3sc(C(C)(C)C)nc3-c3cccc(NS(=O)(=O)N4CCCC4)c3F)ncnc2[nH]1 [P-2123, N-[3-[2-tert-butyl-5-(6-methyl-7H-pyrrolo[2,3-d]pyrimidin-4-yl)thiazol-4-yl]-2-fluoro-phenyl]pyrrolidine-1-sulfonamide]	> 10	0.0001 to 1	> 10	0.0001 to 1		
[2H]C1([2H])N(S(=O)(=O)Nc2cc(Cl)cc(C(=O)c3c[nH]c4ncc(-c5cnc(C6CC6)nc5)cc34)c2F)C([2H])([2H])C([2H])([2H])C1([2H])[2H] [P-2177, N-[5-chloro-3-[5-(2-cyclopropylpyrimidin-5-yl)-1H-pyrrolo[2,3-b]pyridine-3-carbonyl]-2-fluoro-phenyl]-2,2,3,3,4,4,5,5-octadeuterio-pyrrolidine-1-sulfonamide]	> 10	0.0001 to 1	> 10	0.0001 to 1		
CCN(CC)S(=O)(=O)Nc1ccc(F)c(C(=O)c2c[nH]c3nccc(Cl)c23)c1F [Compound P-2011, 4-chloro-3-[3-(diethylsulfamoylamino)-2,6-difluoro-benzoyl]-1H-pyrrolo[2,3-b]pyridine]	> 10	0.0001 to 1	> 10	1 to 10		
CCN(C)S(=O)(=O)Nc1cccc(C(=O)c2c[nH]c3ncnc(NCC(F)(F)F)c23)c1F [P-2065, 5-[3-[[ethyl(methyl)sulfamoyl]amino]-2-fluoro-benzoyl]-4-(2,2,2-trifluoroethylamino)-7H-pyrrolo[2,3-d]pyrimidine]	> 10	0.0001 to 1	> 10	0.0001 to 1		
CCN(CC)S(=O)(=O)Nc1ccc(F)c(C(=O)c2c[nH]c3nccc(C#N)c23)c1F [P-2012, 4-cyano-3-[3-(diethylsulfamoylamino)-2,6-difluoro-benzoyl]-1H-pyrrolo[2,3-b]pyridine]	> 10	0.0001 to 1	> 10	1 to 10		
CNc1ncnc2[nH]cc(C(=O)c3cccc(NS(=O)(=O)N4CCCC4)c3F)c12 [P-2071, N-[2-fluoro-3-[4-(methylamino)-7H-pyrrolo[2,3-d]pyrimidine-5-carbonyl]phenyl]pyrrolidine-1-sulfonamide]	> 10	0.0001 to 1	> 10	0.0001 to 1		
COCCCNc1ncnc2[nH]cc(C(=O)c3cccc(NS(=O)(=O)N4CCCC4)c3F)c12 [P-2105, N-[2-fluoro-3-[4-(3-methoxypropylamino)-7H-pyrrolo[2,3-d]pyrimidine-5-carbonyl]phenyl]pyrrolidine-1-sulfonamide]	> 10	0.0001 to 1	> 10	0.0001 to 1		
O=C(c1cccc(NS(=O)(=O)N2CCCC2)c1F)c1c[nH]c2ncnc(NC3(C(=O)O)CC3)c12 [P-2097, 1-[[5-[2-fluoro-3-(pyrrolidin-1-ylsulfonylamino)benzoyl]-7H-pyrrolo[2,3-d]pyrimidin-4-yl]amino]cyclopropanecarboxylic acid]	> 10	1 to 10	> 10	> 10		
CC(C)(C)c1nc(-c2cccc(NS(=O)(=O)N3CC[C@@H](F)C3)c2F)c(-c2ccnc(N)n2)s1 [P-2129, (3R)-N-[3-[5-(2-aminopyrimidin-4-yl)-2-tert-butyl-thiazol-4-yl]-2-fluoro-phenyl]-3-fluoro-pyrrolidine-1-sulfonamide]		0.0001 to 1		0.0001 to 1	0.0001 to 1	0.0001 to 1
Cc1cc(NS(=O)(=O)N2CCCC2)c(F)c(C(=O)c2c[nH]c3ncc(-c4cnc(C5CC5)nc4)cc23)c1 [P-2183, N-[3-[5-(2-cyclopropylpyrimidin-5-yl)-1H-pyrrolo[2,3-b]pyridine-3-carbonyl]-2-fluoro-5-methyl-phenyl]pyrrolidine-1-sulfonamide]	> 10	0.0001 to 1	> 10			

More lines, now with the values ahead:

EC50 ([1]; numeric bounds) [µM]	IC50 (BRAF V600E) [µM]	EC50 (B9 (HRAS Q61L) cell line; numeric bounds) [µM]	IC50 [2] [µM]	EC50 ([1]; class symbols) [µM]	EC50 (B9 (HRAS Q61L) cell line; class symbols) [µM]	Structure (SMILES)
> 10	0.0001 to 1	> 10	1 to 10			CC(=O)Nc1ccc(NC(=O)c2c(F)ccc(NS(=O)(=O)N(C)C)c2F)cn1 [P-2034, N-(6-acetamido-3-pyridyl)-3-(dimethylsulfamoylamino)-2,6-difluoro-benzamide]
> 10	0.0001 to 1	> 10	0.0001 to 1			O=C(c1cccc(NS(=O)(=O)N2CCCC2)c1F)c1c[nH]c2ncnc(C3CC3)c12 [P-2078, N-[3-(4-cyclopropyl-7H-pyrrolo[2,3-d]pyrimidine-5-carbonyl)-2-fluoro-phenyl]pyrrolidine-1-sulfonamide]
> 10	0.0001 to 1	> 10	0.0001 to 1			CCN(C)S(=O)(=O)Nc1cccc(C(=O)c2c[nH]c3ncnc(NCCCOC)c23)c1F [P-2115, 5-[3-[[ethyl(methyl)sulfamoyl]amino]-2-fluoro-benzoyl]-4-(3-methoxypropylamino)-7H-pyrrolo[2,3-d]pyrimidine]
> 10	0.0001 to 1	> 10	1 to 10			CC(=O)Nc1ccc(NC(=O)c2c(F)ccc(NS(=O)(=O)C3CCCC3)c2F)cn1 [P-2035, N-(6-acetamido-3-pyridyl)-3-(cyclopentylsulfonylamino)-2,6-difluoro-benzamide]
> 10	0.0001 to 1	> 10	0.0001 to 1			CCN(CC)S(=O)(=O)Nc1ccc(F)c(C(=O)c2c[nH]c3ncnc(NC(C)C)c23)c1F [P-2042, 5-[3-(diethylsulfamoylamino)-2,6-difluoro-benzoyl]-4-(isopropylamino)-7H-pyrrolo[2,3-d]pyrimidine]
> 10	0.0001 to 1	> 10	0.0001 to 1			CCN(C)S(=O)(=O)Nc1cccc(C(=O)c2c[nH]c3ncnc(NC)c23)c1F [P-2062, 5-[3-[[ethyl(methyl)sulfamoyl]amino]-2-fluoro-benzoyl]-4-(methylamino)-7H-pyrrolo[2,3-d]pyrimidine]
